Read-outs that look alike come from different tables or passages of the source.
Target: TNFα (Homo sapiens, UniProt P01375)
Assay: TNF induced HEK-Blue assay (NF-kB-driven secreted alkaline phosphatase reporter)
Format: cell-based
Conditions: TNFα 0.5 ng/mL, HEK-Blue-CD40L cells, 18 h
How it was run: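 HEK-Blue-CD40L cells (NF-kB-driven SEAP reporter), 20,000/well, added after 30 min pre-incubation of compound (0.004–25 μM final) with TNFα 0.5 ng/mL final at 37 °C; 18 h incubation. SEAP read with QUANTI-Blue at 620 nm; IC50 from 4-parameter logistic fit, normalized to unstimulated and stimulated DMSO controls.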

[1] = read-out: TNF induced HEK-Blue assay IC50 value

TNFα, sequence (P01375 77-233 limits assumed): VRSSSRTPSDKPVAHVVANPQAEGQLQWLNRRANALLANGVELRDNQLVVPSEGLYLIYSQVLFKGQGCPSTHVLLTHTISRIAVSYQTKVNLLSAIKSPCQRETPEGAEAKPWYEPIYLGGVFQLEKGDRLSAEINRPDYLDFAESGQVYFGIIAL

Row | Structure (SMILES) | IC50 [1] [µM] | IC50 (TNF induced HEK-Blue assay IC50 value) [µM]
1 | CC(C)(O)c1ncc(-c2ccc3ncc(Cl)c(NC(c4ccccc4F)C(F)(F)F)c3c2)cn1 (racemic) [Example 164, 2-(5-(3-chloro-4-((2,2,2-trifluoro-1-(2-fluorophenyl)ethyl)amino)quinolin-6-yl)pyrimidin-2-yl)propan-2-ol] | 1 to 10 | –
2 | COc1cc(-c2ccc(F)c([C@@H](C)Nc3c(Cl)cnc4ccccc34)c2)c(OC)nn1 [Example 513, (R)-3-chloro-N-(1-(5-(3,6-dimethoxypyridazin-4-yl)-2-fluorophenyl)ethyl)quinolin-4-amine] | 1 to 10 | –
3 | CC(Nc1c(Cl)cnc2cc(F)c(-c3cnc(N4CCC(C(C)(C)O)CC4)nc3)cc12)c1ccccc1F (single isomer, unassigned) [Example 245, 2-(1-(5-(3-chloro-7-fluoro-4-((1-(2-fluorophenyl)ethyl)amino)quinolin-6-yl)pyrimidin-2-yl)piperidin-4-yl)propan-2-ol] | < 1 | –
4 | CC(Nc1c(Cl)cnc2ccc(-c3ccc(C(C)(C)O)cc3)cc12)c1ccn(C)n1 (racemic) [Example 200, 2-(4-(3-chloro-4-((1-(1-methyl-1H-pyrazol-3-yl)ethyl)amino)quinolin-6-yl)phenyl)propan-2-ol] | 1 to 10 | –
5 | C[C@@H](Nc1c(Cl)cnc2ccc(-c3cnc(C(C)(C)O)nc3)cc12)c1cccc(-n2cccn2)c1 [Example 368, (R)-2-(5-(4-((1-(3-(1H-pyrazol-1-yl)phenyl)ethyl)amino)-3-chloroquinolin-6-yl)pyrimidin-2-yl)propan-2-ol] | 10 to 25 | –
6 | C[C@@H](Nc1c(Cl)cnc2ccc(-c3cnc(C(C)(C)O)nc3)cc12)c1cc(C(=O)N(C)C)ccc1F [Example 417, (R)-3-(1-((3-chloro-6-(2-(2-hydroxypropan-2-yl)pyrimidin-5-yl)quinolin-4-yl)amino)ethyl)-4-fluoro-N,N-dimethylbenzamide] | < 1 | –
7 | CC1Cc2ccccc2N1Nc1c(Cl)cnc2ccc(-c3cnc(C(C)(C)O)nc3)cc12 (racemic) [Example 48, 2-(5-(3-chloro-4-((2-methylindolin-1-yl)amino)quinolin-6-yl)pyrimidin-2-yl)propan-2-ol] | < 1 | –
8 | CC(=O)N1CCC[C@@H](C(C)Nc2c(Cl)cnc3ccc(-c4cnc(C(C)(C)O)nc4)cc23)C1 (single isomer, unassigned) [Example 108] | – | 1 to 10
9 | CC(Nc1c(Cl)cnc2ccc(-c3cnc(N4CCNC(=O)C4)nc3)cc12)c1nc(C(=O)Nc2ccccc2)ccc1F (racemic) [Example 38, 6-(1-((3-chloro-6-(2-(3-oxopiperazin-1-yl)pyrimidin-5-yl)quinolin-4-yl)amino)ethyl)-5-fluoro-N-phenylpicolinamide] | 1 to 10 | –
10 | CC(Nc1c(Cl)cnc2cc(F)c(-c3ccc(C(O)CN4CCOCC4)cc3)cc12)c1ccccc1F (centres unmarked) [Example 272, 1-(4-(3-chloro-7-fluoro-4-((1-(2-fluorophenyl)ethyl)amino)quinolin-6-yl)phenyl)-2-morpholinoethan-1-ol] | < 1 | –
11 | Cc1nc2c(F)cc(-c3cnc(C(C)(C)O)nc3)cc2c(NC(C)c2ccccc2)c1Cl (centres unmarked) [Example 306, 2-(5-(3-chloro-8-fluoro-2-methyl-4-((1-phenylethyl)amino)quinolin-6-yl)pyrimidin-2-yl)propan-2-ol] | < 1 | –
12 | Cc1nc2c(F)cc(-c3cnc(C(C)(C)O)nc3)cc2c(NC(C)c2ccc(F)cc2)c1Cl (racemic) [Example 301, 2-(5-(3-chloro-8-fluoro-4-((1-(4-fluorophenyl)ethyl)amino)-2-methylquinolin-6-yl)pyrimidin-2-yl)propan-2-ol] | 10 to 25 | –
13 | Cc1nc2cc(F)c(-c3ccc(=O)[nH]c3)cc2c(N[C@H](C)c2cc(C#N)ccc2F)c1Cl [Example 450, (R)-3-(1-((3-chloro-7-fluoro-2-methyl-6-(6-oxo-1,6-dihydropyridin-3-yl)quinolin-4-yl)amino)ethyl)-4-fluorobenzonitrile] | < 1 | –
14 | C[C@@H](Nc1c(Cl)cnc2ccc(-c3cnc(C(C)(C)O)nc3)cc12)c1cc(S(N)(=O)=O)ccc1F [Example 426, (R)-3-(1-((3-chloro-6-(2-(2-hydroxypropan-2-yl)pyrimidin-5-yl)quinolin-4-yl)amino)ethyl)-4-fluorobenzenesulfonamide] | < 1 | –
15 | CC(Nc1c(Cl)cnc2cc(F)c(-c3cnc(C(C)(O)CO)nc3)cc12)c1ccccc1F (centres unmarked) [Example 254, 2-(5-(3-chloro-7-fluoro-4-((1-(2-fluorophenyl)ethyl)amino)quinolin-6-yl)pyrimidin-2-yl)propane-1,2-diol] | < 1 | –
16 | C=Cc1ccc(F)c([C@H](Nc2c(Cl)c(C)nc3cc(F)c(-c4cnc(C(C)(C)O)nc4)nc23)C(F)F)c1 [Example 494, (S)-2-(5-(7-chloro-8-((2,2-difluoro-1-(2-fluoro-5-vinylphenyl)ethyl)amino)-3-fluoro-6-methyl-1,5-naphthyridin-2-yl)pyrimidin-2-yl) propan-2-ol] | < 1 | –
17 | NC1(C(=O)O)CCN(c2ncc(-c3ccc4ncc(Cl)c(N[C@@H](c5ccccc5F)C(F)F)c4c3)cn2)CC1 [Example 75, (S)-4-amino-1-(5-(3-chloro-4-((2,2-difluoro-1-(2-fluorophenyl)ethyl)amino)quinolin-6-yl)pyrimidin-2-yl)piperidine-4-carboxylic acid] | < 1 | –
18 | CC(C)(O)c1ncc(-c2cc3c(N[C@@H](c4cc(C(N)=O)ccc4F)C(F)F)c(Cl)cnc3cc2F)cn1 [Example 391, (S)-3-(1-((3-chloro-7-fluoro-6-(2-(2-hydroxypropan-2-yl)pyrimidin-5-yl)quinolin-4-yl)amino)-2,2-difluoroethyl)-4-fluorobenzamide] | < 1 | –
19 | Cc1nc2ccc(-c3cnc(C(C)(C)O)nc3)cc2c(N[C@H](C)c2ccccc2F)c1Cl [Example 441, (R)-2-(5-(3-chloro-4-((1-(2-fluorophenyl)ethyl)amino)-2-methylquinolin-6-yl)pyrimidin-2-yl)propan-2-ol] | < 1 | –

Further lines, results first:

Row | IC50 [1] [µM] | IC50 (TNF induced HEK-Blue assay IC50 value) [µM] | Structure (SMILES)
20 | < 1 | – | CC(Nc1ncc(-c2ccc3ncc(Cl)c(N[C@H](C)c4ccccc4F)c3c2)cn1)C(N)=O (stereo partly drawn) [Example 591, 2-((5-(3-chloro-4-(((R)-1-(2-fluorophenyl)ethyl)amino)quinolin-6-yl)pyrimidin-2-yl)amino)propanamide]
21 | < 1 | – | CCc1ccc(-c2ccc(F)c([C@@H](C)Nc3c(Cl)cnc4ccccc34)c2)cn1 [Example 508, (R)-3-chloro-N-(1-(5-(6-ethylpyridin-3-yl)-2-fluorophenyl)ethyl)quinolin-4-amine]
22 | < 1 | – | Cc1nc2ccc(-c3cnc(C(C)(C)O)nc3)cc2c(N[C@H](C)c2cc(C(N)=O)ccc2F)c1Cl [Example 387, (R)-3-(1-((3-chloro-6-(2-(2-hydroxypropan-2-yl)pyrimidin-5-yl)-2-methylquinolin-4-yl)amino)ethyl)-4-fluorobenzamide]
23 | 1 to 10 | – | CC(Nc1c(Cl)cnc2ccc(-c3cnc(C(C)(C)O)nc3)cc12)c1ccc(F)cc1F (racemic) [Example 163, 2-(5-(3-chloro-4-((1-(2,4-difluorophenyl)ethyl)amino)quinolin-6-yl)pyrimidin-2-yl)propan-2-ol]
24 | < 1 | – | C[C@@H](Nc1c(Cl)cnc2ccc(-c3cnn(C)c3)cc12)c1cc(-c2cncnc2)ccc1F [Example 550, (R)-3-chloro-N-(1-(2-fluoro-5-(pyrimidin-5-yl)phenyl)ethyl)-6-(1-methyl-1H-pyrazol-4-yl)quinolin-4-amine]
25 | 1 to 10 | – | CC(=O)NC[C@@H](C(=O)O)N1CCN(c2ncc(-c3ccc4ncc(Cl)c(N[C@H](C)c5ccccc5F)c4c3)cn2)CC1 [Example 95, (S)-3-acetamido-2-(4-(5-(3-chloro-4-(((R)-1-(2-fluorophenyl)ethyl)amino)quinolin-6-yl)pyrimidin-2-yl)piperazin-1-yl)propanoic acid]
26 | < 1 | – | Cc1cncc(-c2ccc(F)c([C@@H](C)Nc3c(Cl)cnc4ccccc34)c2)c1 [Example 507, (R)-3-chloro-N-(1-(2-fluoro-5-(5-methylpyridin-3-yl)phenyl)ethyl)quinolin-4-amine]
27 | 1 to 10 | – | C[C@@H](Nc1c(Cl)cnc2ccccc12)c1cc(-c2cnc(N(C)C)nc2)ccc1F [Example 536, (R)-3-chloro-N-(1-(5-(2-(dimethylamino)pyrimidin-5-yl)-2-fluorophenyl)ethyl)quinolin-4-amine]
28 | < 1 | – | CC(C)(O)c1ncc(-c2cc3c(N[C@@H](c4cc(C#N)ccc4F)C(F)F)c(Cl)cnc3cc2F)cn1 [Example 381, (S)-3-(1-((3-chloro-7-fluoro-6-(2-(2-hydroxypropan-2-yl)pyrimidin-5-yl)quinolin-4-yl)amino)-2,2-difluoroethyl)-4-fluorobenzonitrile]
29 | < 1 | – | Cc1nc2ccc(-c3cnc(N4CCN(CC(=O)O)CC4)nc3)cc2c(N[C@H](C)c2cc(C#N)ccc2F)c1Cl [Example 377, (R)-2-(4-(5-(3-chloro-4-((1-(5-cyano-2-fluorophenyl)ethyl)amino)-2-methylquinolin-6-yl)pyrimidin-2-yl)piperazin-1-yl)acetic acid]
30 | < 1 | – | CCC(Nc1c(Cl)cnc2ccc(-c3cnc(C(C)(C)O)nc3)cc12)C1CCC1 (racemic) [Example 50, 2-(5-(3-chloro-4-((1-cyclobutylpropyl)amino)quinolin-6-yl)pyrimidin-2-yl)propan-2-ol]
31 | 10 to 25 | – | C[C@H](Nc1c(Cl)cnc2ccc(-c3cnc(C(C)(C)O)nc3)cc12)[C@H]1CCCN(C(=O)c2cn[nH]c2)C1 [Example 565, ((S)-3-((S)-1-((3-chloro-6-(2-(2-hydroxypropan-2-yl)pyrimidin-5-yl)quinolin-4-yl)amino)ethyl)piperidin-1-yl)(1H-pyrazol-4-yl)methanone]
32 | 1 to 10 | – | C[C@H](Nc1c(Cl)cnc2ccc(-c3cnc(C(C)(C)O)nc3)cc12)[C@H]1CCCN(C(=O)c2cccnc2)C1 [Example 566, ((S)-3-((S)-1-((3-chloro-6-(2-(2-hydroxypropan-2-yl)pyrimidin-5-yl)quinolin-4-yl)amino)ethyl)piperidin-1-yl)(pyridin-3-yl)methanone]
